PubChem BioAssay (NCI)
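Each compound was tested at five concentrations against cells in 96-well plates for 48 hours. GI50 marks 50% less growth. Definition used: TGI = concentration required for complete inhibition of growth.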

These molecules were tested on EKVX NSCLC (assay: NCI-60 cell line screen, 48 h).

| SMILES | GI50 [µM] | TGI [µM] |
| --- | --- | --- |
| COc1ccc(/C=c2/sc3n(c2=O)C(c2ccc(OC)c(OC)c2)C2=C(N=3)c3cc(F)ccc3OC2)cc1 (centres undefined) | 39.7 | > 100 |
| Cc1n(Cc2ccc3ccccc3c2)cc[n+]1Cc1ccc2ccccc2c1 | 2.32 | 17.1 |
| O=C(O)c1ccccc1-c1ccccc1C(=O)Nc1ccc2c(c1)Cc1cc(F)ccc1-2 | – | 77.3 |
| Cc1cc(NC(=O)c2ccc(C)c(Nc3nccc(-c4cccnc4)n3)c2)cc(-n2cnc(C)c2)c1 | 4.27 | 21.4 |
| O=C(O)c1c(-c2nccc3ccccc23)[nH]c(-c2ccccc2)c1S(=O)(=O)O | – | > 100 |
| Cc1[nH]n(-c2cccc(Cl)c2)c(=O)c1/C=C1\C=Nc2ccc(Br)cc21 | 5.45 | 73.3 |
| CC(=O)c1c(CBr)n([O-])c2ccccc2[n+]1=O | 13.2 | 30.3 |
| COc1ccc(C2C(C#N)=C(N)OC3=C2COc2ccc(F)cc23)cc1OC (centres undefined) | 17.8 | > 100 |
| CCCS(=O)(=O)Nc1ccc(Nc2c3ccccc3nc3ccccc23)c(OC)c1 | – | 28.8 |
| CCN(CC)CCNCC(=O)Oc1ccc(/C=C/C(=O)CC(=O)/C=C/c2ccc(OC(=O)CNCCN(CC)CC)c(OC)c2)cc1OC | 2.01 | 5.4 |
| Cc1ccc(Nc2nc(N)c(C(=O)c3ccc(C#N)cc3)s2)cc1 | 0.573 | > 100 |
| CN(C)Cc1c[nH]c2c1C(=O)c1c(c(O)c3ccccc3c1O)C2=O | 0.603 | 5.28 |
| CC(=O)O[C@@H]1C[C@]2(C(C)C)O[C@@]1(C)[C@@H]1CCC(C)=C1[C@@H]2OC(=O)/C=C/c1ccccc1 | 20 | > 100 |
| NC(N)=N/N=C/c1cc(Cl)cc(Cl)c1O | – | > 100 |
| O=C1c2ccn(CCCCNC(CO)(CO)CO)c2C(=O)c2c1c(O)c1ccccc1c2O | 24.8 | 74 |
| c1ccc2c3ccn4cc5c(cc4c-3nc2c1)CCCC5 | 3.88 | 19.5 |
| CCN1C(=O)N(CC)C2C1NC(=S)N2/N=C/C=C/c1cccs1 (centres undefined) | 0.464 | > 100 |
| COc1ccc(-c2cc(-c3cccn3C)c(C#N)c(N)n2)cc1OC | > 100 | > 100 |

These molecules were tested on NCI/ADR-RES ovarian (assay: NCI-60 cell line screen, 48 h).

| SMILES | GI50 [µM] | TGI [µM] |
| --- | --- | --- |
| COc1ccc(/C=c2/sc3n(c2=O)C(c2ccc(OC)c(OC)c2)C2=C(N=3)c3cc(F)ccc3OC2)cc1 (centres undefined) | 18.7 | 87.4 |
| Cc1n(Cc2ccc3ccccc3c2)cc[n+]1Cc1ccc2ccccc2c1 | 41.3 | > 100 |
| O=C(O)c1ccccc1-c1ccccc1C(=O)Nc1ccc2c(c1)Cc1cc(F)ccc1-2 | – | > 100 |
| Cc1cc(NC(=O)c2ccc(C)c(Nc3nccc(-c4cccnc4)n3)c2)cc(-n2cnc(C)c2)c1 | 7.18 | 23 |
| O=C(O)c1c(-c2nccc3ccccc23)[nH]c(-c2ccccc2)c1S(=O)(=O)O | – | > 100 |
| Cc1[nH]n(-c2cccc(Cl)c2)c(=O)c1/C=C1\C=Nc2ccc(Br)cc21 | 3.4 | 16 |
| CC(=O)c1c(CBr)n([O-])c2ccccc2[n+]1=O | 19.5 | 50.3 |
| COc1ccc(C2C(C#N)=C(N)OC3=C2COc2ccc(F)cc23)cc1OC (centres undefined) | 19.4 | 57.3 |
| CCCS(=O)(=O)Nc1ccc(Nc2c3ccccc3nc3ccccc23)c(OC)c1 | – | 37.1 |
| CCN(CC)CCNCC(=O)Oc1ccc(/C=C/C(=O)CC(=O)/C=C/c2ccc(OC(=O)CNCCN(CC)CC)c(OC)c2)cc1OC | 5.73 | > 100 |
| Cc1ccc(Nc2nc(N)c(C(=O)c3ccc(C#N)cc3)s2)cc1 | 0.196 | 36.3 |
| CN(C)Cc1c[nH]c2c1C(=O)c1c(c(O)c3ccccc3c1O)C2=O | 4.29 | 22.8 |
| CC(=O)O[C@@H]1C[C@]2(C(C)C)O[C@@]1(C)[C@@H]1CCC(C)=C1[C@@H]2OC(=O)/C=C/c1ccccc1 | 23.1 | > 100 |
| NC(N)=N/N=C/c1cc(Cl)cc(Cl)c1O | – | > 100 |
| O=C1c2ccn(CCCCNC(CO)(CO)CO)c2C(=O)c2c1c(O)c1ccccc1c2O | 16.3 | 42.3 |
| c1ccc2c3ccn4cc5c(cc4c-3nc2c1)CCCC5 | 55 | > 100 |
| CCN1C(=O)N(CC)C2C1NC(=S)N2/N=C/C=C/c1cccs1 (centres undefined) | 0.296 | > 100 |
| COc1ccc(-c2cc(-c3cccn3C)c(C#N)c(N)n2)cc1OC | > 100 | > 100 |

These molecules were tested on PC-3 prostate (assay: NCI-60 cell line screen, 48 h).

| SMILES | GI50 [µM] | TGI [µM] |
| --- | --- | --- |
| COc1ccc(/C=c2/sc3n(c2=O)C(c2ccc(OC)c(OC)c2)C2=C(N=3)c3cc(F)ccc3OC2)cc1 (centres undefined) | 17.6 | > 100 |
| Cc1n(Cc2ccc3ccccc3c2)cc[n+]1Cc1ccc2ccccc2c1 | 1.06 | 11.6 |
| O=C(O)c1ccccc1-c1ccccc1C(=O)Nc1ccc2c(c1)Cc1cc(F)ccc1-2 | – | 68.2 |
| Cc1cc(NC(=O)c2ccc(C)c(Nc3nccc(-c4cccnc4)n3)c2)cc(-n2cnc(C)c2)c1 | 4.76 | 17.3 |
| O=C(O)c1c(-c2nccc3ccccc23)[nH]c(-c2ccccc2)c1S(=O)(=O)O | – | > 100 |
| Cc1[nH]n(-c2cccc(Cl)c2)c(=O)c1/C=C1\C=Nc2ccc(Br)cc21 | 3.64 | 22.3 |
| CC(=O)c1c(CBr)n([O-])c2ccccc2[n+]1=O | 15.5 | 33.1 |
| COc1ccc(C2C(C#N)=C(N)OC3=C2COc2ccc(F)cc23)cc1OC (centres undefined) | 23.2 | 93.6 |
| CCCS(=O)(=O)Nc1ccc(Nc2c3ccccc3nc3ccccc23)c(OC)c1 | – | 17.6 |
| CCN(CC)CCNCC(=O)Oc1ccc(/C=C/C(=O)CC(=O)/C=C/c2ccc(OC(=O)CNCCN(CC)CC)c(OC)c2)cc1OC | 4.69 | > 100 |
| Cc1ccc(Nc2nc(N)c(C(=O)c3ccc(C#N)cc3)s2)cc1 | 0.347 | > 100 |
| CN(C)Cc1c[nH]c2c1C(=O)c1c(c(O)c3ccccc3c1O)C2=O | 5.71 | 22.2 |
| CC(=O)O[C@@H]1C[C@]2(C(C)C)O[C@@]1(C)[C@@H]1CCC(C)=C1[C@@H]2OC(=O)/C=C/c1ccccc1 | 8.33 | > 100 |
| NC(N)=N/N=C/c1cc(Cl)cc(Cl)c1O | – | > 100 |
| O=C1c2ccn(CCCCNC(CO)(CO)CO)c2C(=O)c2c1c(O)c1ccccc1c2O | 2.83 | 7.57 |
| c1ccc2c3ccn4cc5c(cc4c-3nc2c1)CCCC5 | – | 12.1 |
| CCN1C(=O)N(CC)C2C1NC(=S)N2/N=C/C=C/c1cccs1 (centres undefined) | 0.344 | > 100 |
| COc1ccc(-c2cc(-c3cccn3C)c(C#N)c(N)n2)cc1OC | 99 | > 100 |

The molecules below were run on MOLT-4 leukemia (assay: NCI-60 cell line screen, 48 h).

| SMILES | GI50 [µM] | TGI [µM] |
| --- | --- | --- |
| COc1ccc(/C=c2/sc3n(c2=O)C(c2ccc(OC)c(OC)c2)C2=C(N=3)c3cc(F)ccc3OC2)cc1 (centres undefined) | > 22.7 | > 100 |
| Cc1n(Cc2ccc3ccccc3c2)cc[n+]1Cc1ccc2ccccc2c1 | 1.76 | 5.61 |
| O=C(O)c1ccccc1-c1ccccc1C(=O)Nc1ccc2c(c1)Cc1cc(F)ccc1-2 | – | > 100 |
| Cc1cc(NC(=O)c2ccc(C)c(Nc3nccc(-c4cccnc4)n3)c2)cc(-n2cnc(C)c2)c1 | 15.6 | > 50 |
| O=C(O)c1c(-c2nccc3ccccc23)[nH]c(-c2ccccc2)c1S(=O)(=O)O | – | > 100 |
| Cc1[nH]n(-c2cccc(Cl)c2)c(=O)c1/C=C1\C=Nc2ccc(Br)cc21 | 3.12 | 10.9 |
| CC(=O)c1c(CBr)n([O-])c2ccccc2[n+]1=O | 4 | 15.7 |
| COc1ccc(C2C(C#N)=C(N)OC3=C2COc2ccc(F)cc23)cc1OC (centres undefined) | 49.5 | > 100 |
| CCCS(=O)(=O)Nc1ccc(Nc2c3ccccc3nc3ccccc23)c(OC)c1 | – | 0.231 |
| CCN(CC)CCNCC(=O)Oc1ccc(/C=C/C(=O)CC(=O)/C=C/c2ccc(OC(=O)CNCCN(CC)CC)c(OC)c2)cc1OC | 5.14 | > 100 |
| Cc1ccc(Nc2nc(N)c(C(=O)c3ccc(C#N)cc3)s2)cc1 | 0.468 | > 100 |
| CN(C)Cc1c[nH]c2c1C(=O)c1c(c(O)c3ccccc3c1O)C2=O | 3.42 | > 100 |
| CC(=O)O[C@@H]1C[C@]2(C(C)C)O[C@@]1(C)[C@@H]1CCC(C)=C1[C@@H]2OC(=O)/C=C/c1ccccc1 | 26.9 | > 100 |
| NC(N)=N/N=C/c1cc(Cl)cc(Cl)c1O | – | > 100 |
| O=C1c2ccn(CCCCNC(CO)(CO)CO)c2C(=O)c2c1c(O)c1ccccc1c2O | 2.27 | 4.2 |
| c1ccc2c3ccn4cc5c(cc4c-3nc2c1)CCCC5 | 2.45 | 12.5 |
| CCN1C(=O)N(CC)C2C1NC(=S)N2/N=C/C=C/c1cccs1 (centres undefined) | 0.62 | > 100 |
| COc1ccc(-c2cc(-c3cccn3C)c(C#N)c(N)n2)cc1OC | 46.8 | > 100 |

The molecules below were run on COLO 205 colon (assay: NCI-60 cell line screen, 48 h).

| SMILES | GI50 [nM] | TGI [µM] |
| --- | --- | --- |
| COc1ccc(/C=c2/sc3n(c2=O)C(c2ccc(OC)c(OC)c2)C2=C(N=3)c3cc(F)ccc3OC2)cc1 (centres undefined) | 30100 | > 57.1 |
| Cc1n(Cc2ccc3ccccc3c2)cc[n+]1Cc1ccc2ccccc2c1 | 369 | 1.59 |
| O=C(O)c1ccccc1-c1ccccc1C(=O)Nc1ccc2c(c1)Cc1cc(F)ccc1-2 | – | 32.7 |
| Cc1cc(NC(=O)c2ccc(C)c(Nc3nccc(-c4cccnc4)n3)c2)cc(-n2cnc(C)c2)c1 | 2400 | 7.23 |
| O=C(O)c1c(-c2nccc3ccccc23)[nH]c(-c2ccccc2)c1S(=O)(=O)O | – | > 100 |
| Cc1[nH]n(-c2cccc(Cl)c2)c(=O)c1/C=C1\C=Nc2ccc(Br)cc21 | 2000 | 4.29 |
| CC(=O)c1c(CBr)n([O-])c2ccccc2[n+]1=O | 1810 | 3.63 |
| COc1ccc(C2C(C#N)=C(N)OC3=C2COc2ccc(F)cc23)cc1OC (centres undefined) | 19100 | > 100 |
| CCCS(=O)(=O)Nc1ccc(Nc2c3ccccc3nc3ccccc23)c(OC)c1 | – | 20.8 |
| CCN(CC)CCNCC(=O)Oc1ccc(/C=C/C(=O)CC(=O)/C=C/c2ccc(OC(=O)CNCCN(CC)CC)c(OC)c2)cc1OC | 5060 | 22.8 |
| Cc1ccc(Nc2nc(N)c(C(=O)c3ccc(C#N)cc3)s2)cc1 | 279 | 6.64 |
| CN(C)Cc1c[nH]c2c1C(=O)c1c(c(O)c3ccccc3c1O)C2=O | 38.6 | > 100 |
| CC(=O)O[C@@H]1C[C@]2(C(C)C)O[C@@]1(C)[C@@H]1CCC(C)=C1[C@@H]2OC(=O)/C=C/c1ccccc1 | 31400 | > 100 |
| NC(N)=N/N=C/c1cc(Cl)cc(Cl)c1O | – | > 100 |
| O=C1c2ccn(CCCCNC(CO)(CO)CO)c2C(=O)c2c1c(O)c1ccccc1c2O | 912 | > 23.6 |
| c1ccc2c3ccn4cc5c(cc4c-3nc2c1)CCCC5 | 2370 | 6.16 |
| CCN1C(=O)N(CC)C2C1NC(=S)N2/N=C/C=C/c1cccs1 (centres undefined) | 267 | 1.17 |
| COc1ccc(-c2cc(-c3cccn3C)c(C#N)c(N)n2)cc1OC | > 100000 | > 100 |
